US8791098B2 (priority 2008, dated 2014)
In brackets after ≈: the same amount, converted by molar mass. Read-outs that look alike come from different tables or passages of the source.

Tests used:
[1] = system: HL-60 cells; experiment: cells; conditions: Homo sapiens
Experimental: A given number of cells were cultivated in 96-well plates with serial dilutions of the drugs up to 100 ng/ml. Tubulysin A is used as a positive control, whereas methanol is used as a negative control. After 5 days of incubation the metabolic activities of the cells were measured using MTT-assay as described under the methods section.
The effect of pre-tubulysin 816 and 827 was tested with regard to the growth of other cell lines, including the mouse connective tissues fibroblast L929, the human lung carcinoma cell line A549, the human colon adenocarcinoma cell line SW-480, and the human histiocytic lymphoma cell line U937, in addition to the human myeloid leukemia cell line HL-60.

[2] = system: A549; experiment: Anti-proliferation MTT assay (Example 2, Table 1); type: cell-based; conditions: A549 human lung carcinoma
[3] = system: SW-480; experiment: Anti-proliferation MTT assay (Example 2, Table 1); type: cell-based; conditions: SW480; SW-480 human colon adenocarcinoma
[4] = system: U937; experiment: Anti-proliferation MTT assay (Example 2, Table 1); type: cell-based; conditions: U-937; U937 human histiocytic lymphoma
[5] = system: L929; experiment: cells; type: cell-based, mouse; conditions: Mus musculus; L929, average of two measurements; read-out: IC50
Experimental: Cytotoxicity testing of pretubulysin (AU827), N-desmethyl-pretubulysin (AU816) and Tubulysin A and D was performed as follows: Cells were seeded at 6×10^3 cells per well of 96-well plates in 180 μl complete medium and directly treated with varying concentrations of (pre-)tubulysins diluted in methanol. Each compound was tested in duplicate as well as the internal methanol control. After 5 d incubation, 20 μl of 5 mg/ml MTT (Thiazolyl blue tetrazolium bromide) in PBS was added per well and it was further incubated for 2 h at 37° C. The medium was then discarded and cells were washed with 100 μl PBS before adding 100 μl 2-propanol/10 N HCl (250:1) in order to dissolve formazan granules.
The absorbance at 570 nm was measured using a microplate reader (EL808, Bio-Tek Instruments Inc.), and cell viability was expressed as percentage relative to the respective methanol control. IC50 values were obtained by plotting relative growth inhibition in % against the compound concentration on a logarithmic scale. After sigmoidal curve fitting IC50 values can be determined. The IC50[per ml] are shown in the following table (values represent the average of two measurements): […]

[6] = system: PtK2 cells; type: cell-based; conditions: for concentration at which effects on microtubules and spindle morphologies appear / concentration for complete de-polymerization (disappearance) of interphase microtubules: 24 hours incubation
Experimental: Cell staining: Ptk2 cells were seeded on round glass coverslips (13 mm in diameter) in 4-well plates. Cells were incubated with the drugs to the given times as indicated for each experiment. For staining the microtubules and the nuclei, cells were firstly fixed with cold (−20° C.) acetone/methanol (1:1) for 10 min. For labelling the microtubules, cells were incubated with a primary monoclonal antibody against α-tubulin (1:500 Sigam) for 45 min at 37° C., followed by a secondary anti-mouse IgG antibody conjugated with Alexa488 (1:2000; Molecular probes) under the same incubations conditions. The nuclei were stained with DAPI (1 μg/ml in PBS). The cells were washed with phosphate buffer saline (PBS) between incubations. Coverslips were mounted by using Prolong Antifade (Molecular Probes) and imaged through a fluorescence microscope (LSM-Zeiss) with appropriate filter set.
Tubulysin A and D are known to induce de-polymerization of the interphase microtubules of mammalian cells and additionally induce a multi-polar spindle pool in mitotic cells (Khalil, M. et al., Chembiochem. 7, 678-683 (2006); Sasse, F., Menche, D. Nat. Chem. Biol. 3, 87-89 (2007)). Here the effect of pre-tubulysin treatment on the morphologies of microtubules and microtubules related structures in PtK2 cells was tested. PtK2 cells were seeded onto glass cover clips in 4 well plates and cultivated for 24 or 48 hours under growth conditions. The cells were then treated with different concentrations of tubulysin A, tubulysin D, pre-tubulysin-816 or pre-tubulysin-827. The control cells were treated only with equivalent amount of methanol (solvent). The cells were thin incubated for further 24 hours before they were fixed as described under the methods section. Fixed cells were then washed with PBS and finally labeled with anti-α-tubulin primary antibodies followed by anti-mouse-alexa-488 secondary antibodies to visualize the microtubules. The nuclei were stained with DAPI.

[7] = target: T1, purified microtubules protein isolated from porcine brain (Sus scrofa, UniProt P02550+P02554); experiment: Turbidometric microtubules protein polymerization assay; type: biochemical; conditions: 10 μM microtubules protein, 10 min, 37° C.
T1 construct: Microtubules proteins were purified from porcine brain; from tissue; host or cells: porcine brain
Experimental: Tubulin purification: Microtubules proteins were purified from porcine brain by using standard procedures that includes three cycles of temperature-dependent polymerization and de-polymerization, as described elsewhere.
Polymerisation assay: Tubulin polymerisation was monitored by using turbidometry assay (lit). Samples (200 μl, 10 μM tubulin) in PEM polymerisation buffer (0.1 M PIPES, pH 6.6, 1 mM EGTA, 1 mM MgSO4, and 1 mM GTP), were rapidly warmed to 37° C. in a water-jacketed cuvette holder of a diode array photometer (Beckman spectrophotometer DU 7500). Absorbance at 350 nm where monitored in the absence and the presence of the drugs.
10 μM of purified microtubles protein were mixed on ice with 0, 1.7, 3.2, and 6.7 μM pre-tubulysin-816. Microtubules protein polymerization was then monitored for 10 min at 350 nm and 37° C. […] 1.7 μM of the drug was able to inhibit the polymerization of the protein by approximately 20%. Increase the concentration of the drug to 6.7 μM induced an inhibition of the polymerization to 60%.
Therefore, we were interested to test its activity on the polymerization of microtubules in vitro. We first studied its polymerization inhibition potential on microtubules polymerization. 10 μM of purified microtubules protein were mixed on ice with 0, 1, 1.7 and 3.4 μM pre-tubulysin-827 on ice. Microtubules protein polymerization was then monitored for 10 min at 350 nm and 37° C.

T1 sequence (P02554 whole entry): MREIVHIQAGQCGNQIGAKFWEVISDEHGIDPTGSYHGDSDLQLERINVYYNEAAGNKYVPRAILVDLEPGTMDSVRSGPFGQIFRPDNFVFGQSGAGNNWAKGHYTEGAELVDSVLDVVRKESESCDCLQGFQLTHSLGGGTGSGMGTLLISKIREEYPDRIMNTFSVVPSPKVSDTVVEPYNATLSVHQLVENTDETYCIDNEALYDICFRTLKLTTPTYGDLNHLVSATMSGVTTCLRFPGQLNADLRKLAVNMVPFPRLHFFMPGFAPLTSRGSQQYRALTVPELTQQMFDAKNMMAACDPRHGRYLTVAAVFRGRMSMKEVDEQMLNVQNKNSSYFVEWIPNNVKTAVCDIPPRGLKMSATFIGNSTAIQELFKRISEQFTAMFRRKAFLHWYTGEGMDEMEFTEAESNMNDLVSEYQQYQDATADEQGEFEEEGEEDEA
T1 sequence (P02550 whole entry): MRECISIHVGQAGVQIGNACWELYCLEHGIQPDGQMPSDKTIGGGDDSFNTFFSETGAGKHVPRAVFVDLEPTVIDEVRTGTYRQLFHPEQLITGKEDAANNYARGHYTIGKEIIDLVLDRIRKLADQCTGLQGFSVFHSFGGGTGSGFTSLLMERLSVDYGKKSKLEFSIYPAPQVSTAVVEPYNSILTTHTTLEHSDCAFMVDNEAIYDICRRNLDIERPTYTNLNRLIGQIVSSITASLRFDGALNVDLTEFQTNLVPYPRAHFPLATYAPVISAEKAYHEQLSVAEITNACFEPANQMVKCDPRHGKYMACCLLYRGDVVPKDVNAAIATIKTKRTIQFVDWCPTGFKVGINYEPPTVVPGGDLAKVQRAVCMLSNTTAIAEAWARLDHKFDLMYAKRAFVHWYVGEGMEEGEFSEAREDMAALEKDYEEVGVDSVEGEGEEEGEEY

| Compound | IC50 ([1]; HL-60, 120 h) | IC50 ([1]; HL-60, read-out: IC50 value) | IC50 [2] | IC50 [3] | IC50 [4] | IC50 [5] | concentration at which effects on microtubules and spindle morphologies appear [6] | concentration for complete de-polymerization (disappearance) of interphase microtubules [6] | concentration for complete de-polymerization (disappearance) of interphase microtubules ([6]; listed as Pre-tubulysin-816) | effect on the interphase microtubules ([6]; concentrations up to 250 ng/ml, 24 h) | inhibition at 1.7 µM ([7]; 1.7 μM drug) | inhibition at 6.7 µM ([7]; 6.7 μM drug, printed as inhibition 'to 60%') | concentration for complete de-polymerization (disappearance) of interphase microtubules ([6]; listed as Pre-tubulysin-827) | inhibition at 1 µM ([7]; 1 μM drug) | inhibition at 3.4 µM ([7]; 3.4 μM drug) |
| --- | --- | --- | --- | --- | --- | --- | --- | --- | --- | --- | --- | --- | --- | --- | --- |
| CC[C@H](C)[C@H](NC(=O)[C@H]1CCCCN1C)C(=O)N(C)[C@H](CCc1nc(C(=O)N[C@H](CCC(=O)O)Cc2ccccc2)cs1)C(C)C [pre-tubulysin-816, N-desmethyl-pretubulysin] | 0.15 ng/mL (≈ 0.229 nM) | 0.15 ng/mL (≈ 0.229 nM) | 95 ng/mL (≈ 145 nM) | 1.37 ng/mL (≈ 2.09 nM) | 0.4 ng/mL (≈ 0.61 nM) | 40 ng/mL (≈ 60.9 nM) | ≥ 500 ng/ml | around 5 μg/ml | 5 µg/mL | did not show any clear effect | ~20% | 60% |  |  |  |
| CC[C@H](C)[C@H](NC(=O)[C@H]1CCCCN1C)C(=O)N(C)[C@H](CCc1nc(C(=O)N[C@@H](Cc2ccccc2)C[C@H](C)C(=O)O)cs1)C(C)C [pre-tubulysin-827, pretubulysin] | 0.017 ng/mL (≈ 0.0254 nM) | 0.017 ng/mL (≈ 0.0254 nM) | 9 ng/mL (≈ 13.4 nM) | 0.15 ng/mL (≈ 0.224 nM) | 0.09 ng/mL (≈ 0.134 nM) | 3.87 ng/mL (≈ 5.78 nM) | 50 ng/ml | ≥ 1 µg/mL |  |  |  |  | 1 µg/mL | ~45% | > 85% |
